How the values were obtained:
[1] = test system: AMARE; assay: Pre-emergence herbicidal action against AMARE; type: in vivo, Amaranthus retroflexus; details: 1280 g/ha, scored visually after about 3 weeks vs untreated controls
Excerpt: (§1) Seeds of mono- and dicotyledonous weed plants are placed in plastic pots in sandy loam soil (doubly sown with one species each of mono- or dicotyledonous weed plants per pot) and covered with soil. The compounds of the invention, formulated in the form of wettable powders (WP) or as emulsion concentrates (EC), are then applied onto the surface of the covering soil as aqueous suspension or emulsion with addition of 0.5% additive at a water application rate equivalent to 600 litres per hectare. After the treatment, the pots are placed in a greenhouse and kept under good growth conditions for the trial plants. After about 3 weeks, the effect of the preparations is scored visually in comparison with untreated controls as percentages. For example, 100% activity=the plants have died, 0% activity=like control plants. [table] Tables 4.1-4.15 below show the effects of selected compounds of the general formula (I) according to Tables 1 to 3 on various harmful plants at an application rate corresponding to 1280 or 320 g/ha, which have been obtained by the aforementioned experimental method.

[2] = test system: ECHCG; assay: Pre-emergence herbicidal action against ECHCG; type: in vivo, Echinochloa crus-galli; details: scored visually after about 3 weeks vs untreated controls, 100% = plants have died, 0% = like control plants
Excerpt: as §1

[3] = test system: STEME; assay: Pre-emergence herbicidal action against STEME; type: in vivo, Stellaria media; details: 1280 g/ha, scored visually after about 3 weeks vs untreated controls
Excerpt: as §1

[4] = test system: SETVI; assay: Pre-emergence herbicidal action against SETVI; type: in vivo, Setaria viridis; details: 1280 g/ha, scored visually after about 3 weeks vs untreated controls
Excerpt: as §1

[5] = test system: MATIN; assay: Post-emergence herbicidal action against MATIN; type: in vivo, Matricaria inodora; details: 1280 g/ha, visual rating about 3 weeks after treatment
Procedure: (§2) [table] Seeds of mono- and dicotyledonous weed plants are placed in plastic pots in sandy loam soil (twin sowing with one species each of mono- or dicotyledonous weed plants per pot), covered with soil and cultivated in a greenhouse under controlled growth conditions. 2 to 3 weeks after sowing, the test plants are treated at the one-leaf stage. The compounds of the invention, formulated in the form of wettable powders (WP) or as emulsion concentrates (EC), are applied to the green parts of the plants as aqueous suspension or emulsion with addition of 0.5% additive at a water application rate equivalent to 600 litres per hectare. After the test plants have been kept in the greenhouse under optimum growth conditions for about 3 weeks, the activity of the preparations is rated visually in comparison to untreated controls. For example, 100% activity=the plants have died, 0% activity=like control plants. Tables 5.1-5.16 below show the effects of selected compounds of the general formula (I) according to Tables 1 to 3 on various harmful plants at an application rate corresponding to 1280 or 320 g/ha, which have been obtained by the aforementioned experimental method.

[6] = test system: STEME; assay: Post-emergence herbicidal action against STEME; type: in vivo, Stellaria media; details: 1280 g/ha, visual rating about 3 weeks after treatment
Procedure: as §2

[7] = test system: SETVI; assay: Post-emergence herbicidal action against SETVI; type: in vivo, Setaria viridis; details: 1280 g/ha, post-emergence at one-leaf stage, rated visually after about 3 weeks vs untreated controls
Procedure: as §2

[8] = test system: AMARE; assay: Post-emergence herbicidal action against AMARE; type: in vivo, Amaranthus retroflexus; details: 1280 g/ha, visual rating about 3 weeks after treatment
Procedure: as §2

| Compound | Pre-emergence action against AMARE in % [1] [%] | Pre-emergence action at 1280 g/ha against ECHCG in % [2] [%] | Pre-emergence action against STEME in % [3] [%] | Pre-emergence action against SETVI in % [4] [%] | Post-emergence action against MATIN in % [5] [%] | Post-emergence action against STEME in % [6] [%] | Post-emergence action against SETVI in % [7] [%] | Post-emergence action against AMARE in % [8] [%] |
| --- | --- | --- | --- | --- | --- | --- | --- | --- |
| O=C(COc1nn(-c2ccc(F)cc2)c(-c2cccc(F)c2)c1Cl)NC1CC1 [III-024] | 100 | 90 | 100 | 100 | – | – | – | – |
| CC(Oc1nn(-c2ccccc2F)c(-c2ccc(F)c(F)c2)c1Br)C(=O)O (stereo not shown) [I-168] | 100 | 90 | 100 | – | 90 | 100 | – | – |
| C=CCNC(=O)COc1nn(-c2ccccc2F)c(-c2ccc(F)c(F)c2)c1[N+](=O)[O-] [III-066] | 90 | – | 90 | 90 | – | – | 100 | – |
| O=C(O)COc1nn(-c2ccc(F)cc2)c(-c2cccc(F)c2)c1Br [I-119] | 100 | – | 100 | 100 | 90 | 90 | – | 100 |
| CCOC(=O)COc1nn(-c2ccc(F)cc2)c(-c2ccc(F)cc2)c1Br [I-076] | 100 | 90 | 100 | 100 | 90 | – | – | 100 |
| CCOC(=O)COc1nn(-c2c(F)cccc2F)c(-c2ccc(F)c(F)c2)c1Cl [I-142] | 100 | 100 | 100 | 100 | 90 | 100 | – | – |
| O=C(COc1nn(-c2ccccc2)c(-c2ccc(F)cc2)c1Br)OCc1cccc(F)c1 [I-111] | – | 100 | 100 | 90 | 90 | 90 | – | 100 |
| CCOC(=O)COc1nn(-c2ccc(F)cc2F)c(-c2ccc(F)cc2F)c1Br [I-088] | 90 | – | 100 | 90 | 90 | 100 | – | 100 |
| CCOC(=O)COc1nn(-c2ccccc2F)c(-c2ccc(F)c(F)c2)c1Br [I-133] | 100 | 90 | 100 | 100 | 90 | 100 | – | 90 |
| CCOC(=O)COc1nn(-c2ccccc2)c(-c2ccc(F)cc2F)c1Br [I-085] | 100 | 100 | – | 100 | 90 | 100 | – | 100 |
| COC(=O)C(C)Oc1nn(-c2ccccc2)c(-c2ccccc2F)c1Cl (stereo not shown) [I-166] | 90 | – | 90 | 90 | 100 | – | – | 100 |
| COC(=O)C(C)Oc1nn(-c2ccccc2F)c(-c2ccc(F)c(F)c2)c1Br (stereo not shown) [I-170] | 100 | – | 100 | 100 | – | 100 | – | 90 |
| CCOC(=O)COc1nn(-c2c(F)cccc2F)c(-c2ccc(F)c(F)c2)c1Br [I-134] | 100 | 100 | 100 | 100 | – | 100 | – | 90 |
| C#CCNC(=O)COc1nn(-c2ccc(F)cc2)c(-c2cccc(F)c2)c1Br [III-016] | 100 | 100 | 100 | 100 | – | – | – | 90 |
| CCOC(=O)COc1nn(-c2ccccc2F)c(-c2ccc(F)c(F)c2)c1Cl [I-131] | 100 | 100 | – | 100 | 90 | 90 | – | – |
| O=C(COc1nn(-c2ccccc2)c(-c2ccc(F)cc2)c1Br)NCC1CC1 [III-005] | 90 | 100 | 100 | 100 | – | – | – | – |
| COC(=O)COc1nn(-c2cccc(F)c2)c(-c2ccccc2)c1Br [I-114] | 100 | 90 | 100 | 100 | 90 | – | – | 100 |
| CC(C)(Oc1nn(-c2ccccc2)c(-c2ccc(F)cc2)c1Br)C(=O)O [I-140] | 90 | 90 | 100 | 100 | – | 100 | – | – |
| CCOC(=O)COc1nn(-c2ccccc2OC)c(-c2ccc(F)cc2)c1Br [I-089] | – | – | – | – | – | – | 100 | 100 |
| C=CCNC(=O)COc1nn(-c2c(F)cccc2F)c(-c2ccc(F)c(F)c2)c1Br [III-054] | 90 | – | – | 90 | – | – | 100 | – |
| COC(=O)COc1nn(-c2cccc(F)c2)c(-c2ccccc2)c1[N+](=O)[O-] [I-122] | 100 | 100 | – | – | – | – | – | – |
| COC(=O)C(C)Oc1nn(-c2ccccc2)c(-c2ccc(F)cc2)c1Br (stereo not shown) [I-132, Methyl 2-{[4-bromo-5-(4-fluorophenyl)-1-phenyl-1H-pyrazol-3-yl]oxy}propanoate] | 100 | – | 100 | 100 | 90 | 100 | – | – |

Reference: US20230066946A1, “1,5-DIPHENYLPYRAZOLYL-3-OXYALKYL ACIDS AND 1-PHENYL-5-THIENYLPYRAZOLYL-3-OXYALKYL ACIDS AND THE USE THEREOF FOR CONTROL OF UNWANTED PLANT GROWTH” (Bayer Aktiengesellschaft, priority 2019, published 2023)
